Several values for one entry are separate records, joined by “and”; a condition that tells them apart may be missing. Equal values may be shown once.
Key:
[1] = tested on: human donor dispersed islet cells; experiment: Glucagon secretion from healthy human donor dispersed islet cells; type: cell-based; set-up: Glucagon secretion: unit not given here
Description: Pancreata of nondiabetic C57BL/6J mice were digested using collagenase P (Roche Diagnostics, catalog 11213873001), and islets were manually picked up using a stereomicroscope (ZEISS Stemi 305). […] Isolated mouse islets or provided human islets were dispersed as described ([28]). Briefly, 100–120 islets were washed 2 times using modified HBSS, then dispersed in 600 μL Accutase (Innovative Cell Technologies, catalog AT-104) by gently pipetting up and down for 7 minutes at 37°C. […] Following refreshing of KRBH, cells were dispensed in 8 microfuge tubes (2,000 cells/tube) and treated with WCDD301, preclustered Ephrin-A5 Fc, or preclustered Fc in the presence or absence of the competitive inhibitor of EphA4 receptor, rhyncophylline ([60]) (MilliporeSigma, catalog SML2345). In the presence or absence of these effectors, secretion assay was performed sequentially as shown in Supplemental Table 5. […] Preclustering of Ephrin-A5 Fc was done by mixing Ephrin-A5 Fc or Fc alone (BioLegend, catalog 790102) with anti-Fc antibody (Invitrogen, catalog A16086) (1:10 molar ratio) 20 minutes before treatment ([62]). […] Shedding of cleaved EphA4 was measured from the cell culture medium. Experiments were performed by dispersion of 200 islets, and EphA4 levels in media were measured by EphA4 ELISA (ABclonal, catalog RK06572).
The Integrated Islet Distribution Program provided us human donor islets with their characteristics (Supplemental Table 6). Islets were centrifuged at 500g for 3 minutes, resuspended in CMRL 1066 medium (Gibco, catalog 1150-037) containing 11 mM glucose, and rested in an incubator overnight.
For the hormone secretion assay, islets or dispersed islet cells were adapted in KRBH buffer containing 11 mM glucose for 1 hour. Then, after 2 washes in HBSS containing 11 mM glucose, islets or cells were treated in the following sequential order in the presence or absence of WCDD301: incubation in KRBH (1 mM glucose, 30 minutes) followed by medium collection, incubation in KRBH (11 mM glucose, 30 minutes) followed by medium collection.

[2] = tested on: human dispersed islet cells; experiment: Immunofluorescence: EphA4 intensity in glucagon+ human dispersed islet cells; type: cell-based;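 for EphA4 intensity: ImageJ intensity within ROI drawn around each glucagon+ cell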
Description: Coverslips were treated with WCDD301, preclustered Ephrin-A5 Fc, or preclustered Fc in the following sequential order: KRBH (11 mM glucose, 30 minutes), KRBH (1 mM glucose, 60 minutes), KRBH (1 mM glucose, 30 minutes), and KRBH (11 mM glucose, 60 minutes). After treatment, coverslips were washed once in PBS, fixed in 2% paraformaldehyde in PBS (30 minutes), and again washed in PBS. […] Following wash in PBS, coverslips were incubated in a mixture of Alexa Fluor 555 Phalloidin (Cell Signaling Technology, catalog 8953) and secondary antibodies (goat anti-rabbit Alexa Fluor 488, catalog A-21094, 1:1,000, Molecular Probes; and goat anti-mouse Alexa Fluor 633, catalog A21052, 1:1,000, Life Technologies) for 1 hour at RT. Both primary and secondary antibodies were diluted in blocking buffer containing 0.05% Tween 20. Coverslips were washed using PBS and counterstained by using DAPI (1:1,000) for 10 minutes. Following 2 washes in PBS, coverslips were mounted on glass slides using ProLong Glass Antifade Mountant (Invitrogen, catalog P36980). Images were captured using the Zeiss LSM880 microscope with a Plan-Apochromat 63× 1.4 NA objective lens by setting dual-band dichroic/filter for 405, 488, 561, and 633 nm laser excitation. For each slide, 25–30 fields of view were scanned, and in each field of view, 3–5 cells were imaged. […] Values of intensity were compared among groups using 1-way ANOVA, α = 0.05.

[3] = tested on: diabetic NOD mice; experiment: Hematoxylin-Eosin staining of pancreatic islets of NOD mice; type: in vivo, mouse; details: WCDD301-treated diabetic NOD mice
[4] = Pharmacokinetics in CD-1 mice, subcutaneous or intravenous; type: in vivo, mouse; details: for Plasma concentration (Supplemental Figure 5A) / Plasma concentration (Supplemental Figure 5B): individual mice M1-M3, route not given
Description: CD-1 mice were injected with WCDD301 subcutaneously (1 mg/kg, n = 3) or intravenously (1 mg/kg, n = 3), and blood was collected from saphenous vein directly into K2-EDTA–containing microcentrifuge tubes at 5, 10, and 15 minutes postdosing. An aliquot of 20 μL plasma was deproteinized using 200 μL of internal standard solution (100 ng/mL of labetalol and tolbutamide in acetonitrile), incubated for 10 minutes at RT, and centrifuged at 1,800g for 10 minutes at 4°C. Following 1:1 dilution of the supernatant with deionized water, 1 μL of the diluted sample was used for LC-MS/MS analysis (TripleQuad 6500, column: ACQUITY UPLC BEH C18 2.1 × 50 mm, 1.7 μm; flow rate: 0.6 mL/min, retention time: 1.60/1.78 WCDD301/labetalol).

For `CC(=O)OCC(N)(COC(C)=O)COC(C)=O` [WCDD301, 2-(acetoxymethyl)-2-aminopropane-1,3-diyl diacetate], which “Effect on glucagon secretion” value ([1]; 1, 3 or 6 hours exposure, 1 mM and 11 mM glucose) is on record?
Its value is “dose-dependent and time-dependent suppression of glucagon secretion”.

And the Glucagon secretion ([1]; 1 hour exposure, WCDD301 0.75 µM, 1 mM (first group), Figure 2A)?
The Glucagon secretion was 48.0 and 44.0 and 43.0.

What about the Glucagon secretion ([1]; 1 hour exposure, WCDD301 0.75 µM, head printed 1 mM (second group c4-c7), Figure 2A) of the same compound?
Its Glucagon secretion is 55.8 and 56.2 and 53.0.

And the Glucagon secretion ([1]; 1 hour exposure, WCDD301 1.5 µM, 1 mM (first group), Figure 2A)?
Its Glucagon secretion is 41.5 and 42.9 and 40.0.

What about the Glucagon secretion ([1]; 1 hour exposure, WCDD301 1.5 µM, head printed 1 mM (second group c4-c7), Figure 2A) of the same compound?
The Glucagon secretion was 50.8 and 55.7 and 48.0.

And the Glucagon secretion ([1]; 1 hour exposure, WCDD301 3 µM, 1 mM (first group), Figure 2A)?
Its Glucagon secretion is 40.5 and 41.8 and 38.0.

And the Glucagon secretion ([1]; 1 hour exposure, WCDD301 3 µM, head printed 1 mM (second group c4-c7), Figure 2A)?
The Glucagon secretion was 49.7 and 48.4 and 44.0.

What about the Glucagon secretion ([1]; 3 hours exposure, WCDD301 0.75 µM, 1 mM (first group), Figure 2B) of the same compound?
The Glucagon secretion was 41.6 and 44.5 and 43.0.

And the Glucagon secretion ([1]; 3 hours exposure, WCDD301 0.75 µM, head printed 1 mM (second group c4-c7), Figure 2B)?
The Glucagon secretion was 66.0 and 60.4 and 68.0.

What about the Glucagon secretion ([1]; 3 hours exposure, WCDD301 1.5 µM, 1 mM (first group), Figure 2B) of the same compound?
The Glucagon secretion was 44.9 and 42.7 and 41.0.

What about the Glucagon secretion ([1]; 3 hours exposure, WCDD301 1.5 µM, head printed 1 mM (second group c4-c7), Figure 2B) of the same compound?
Its Glucagon secretion is 58.5 and 55.8 and 60.0.

And the Glucagon secretion ([1]; 3 hours exposure, WCDD301 3 µM, 1 mM (first group), Figure 2B)?
The Glucagon secretion was 42.4 and 42.3 and 41.0.

What about the Glucagon secretion ([1]; 3 hours exposure, WCDD301 3 µM, head printed 1 mM (second group c4-c7), Figure 2B) of the same compound?
Its Glucagon secretion is 66.8 and 54.9 and 52.0.

What about the Glucagon secretion ([1]; 6 hours exposure, WCDD301 0.75 µM, 1 mM (first group), Figure 2C) of the same compound?
Its Glucagon secretion is 42.9 and 40.6 and 44.0.

What about the Glucagon secretion ([1]; 6 hours exposure, WCDD301 0.75 µM, head printed 1 mM (second group c4-c7), Figure 2C) of the same compound?
Its Glucagon secretion is 67.1 and 76.1 and 81.0.

And the Glucagon secretion ([1]; 6 hours exposure, WCDD301 1.5 µM, 1 mM (first group), Figure 2C)?
Its Glucagon secretion is 42.5 and 46.0 and 43.0.

What about the Glucagon secretion ([1]; 6 hours exposure, WCDD301 1.5 µM, head printed 1 mM (second group c4-c7), Figure 2C) of the same compound?
Its Glucagon secretion is 67.6 and 68.1 and 62.0.

What about the Glucagon secretion ([1]; 6 hours exposure, WCDD301 3 µM, 1 mM (first group), Figure 2C) of the same compound?
The Glucagon secretion was 39.8 and 39.3 and 37.0.

What about the Glucagon secretion ([1]; 6 hours exposure, WCDD301 3 µM, head printed 1 mM (second group c4-c7), Figure 2C) of the same compound?
The Glucagon secretion was 56.5 and 55.1 and 50.0.

What about the EphA4 intensity ([2]; human cells, individual values, Figure 3G) of the same compound?
The EphA4 intensity was 58.8 and 45.8 and 8.0 and 57.8 and 32.5 and 5.4 and 45.9 and 14.9 and 11.0.

What about the “Effect on intracellular EphA4” value ([2]; α cells, human donors) of the same compound?
The value was “increased intracellular EphA4 intensity”.

What about the “Mononuclear cell infiltration and edema (Hematoxylin-Eosin)” value [3] of the same compound?
Its value is “no mononuclear infiltration or apparent edema”.

And the “Plasma concentration (Supplemental Figure 5A)” value ([4]; 5 min)?
The value was 64.8 and 47.6 and 146.

What about the “Plasma concentration (Supplemental Figure 5B)” value ([4]; 5 min) of the same compound?
Its value is 57.9 and 180 and 135.

What about the “Plasma concentration (Supplemental Figure 5A)” value ([4]; 10 min) of the same compound?
Its value is 44.3 and 27.1 and 52.9.

And the “Plasma concentration (Supplemental Figure 5B)” value ([4]; 10 min)?
The value was 11 and 18.9 and 12.4.

And the “Plasma concentration (Supplemental Figure 5A)” value ([4]; 15 min)?
Its value is 31.3 and 22.7 and 21.7.

What about the “Plasma concentration (Supplemental Figure 5B)” value ([4]; 15 min) of the same compound?
Its value is 0 and 6.64 and 3.56.

And the “Plasma concentration, subcutaneous compared with intravenous” value ([4]; CD-1 mice, 1 mg/kg, 15 minutes)?
The value was “increased plasma concentrations of WCDD301 at 15 minutes following subcutaneous injection”.
